Laboratory results reported in patent US20260000620A1, “ORAL DOSAGE FORMS” (priority 2022, published 2026).
Positions of bridges follow the written chain, without caps; N, C: chain ends. Residues, ends and D or L forms follow the SMILES beside them.

How the values were obtained:
[1] = dog, in vivo, iv
Method: (§1) A dog PK study with terlipressin capsules was carried out essentially as described in Example 2. The key differences are as follows:
(§2) Test article administration: Animals were fasted for at least 12 hours prior to dosing and through the first 4 hours of blood sample collection (food was returned within 30 minutes following collection of the last blood sample at the 4 hour collection interval).
(§3) Intravenous administration: Animals in Phase 1 (groups 1 and 2) received a single iv of glypressin of 0.04 or 0.2 mg terlipressin base (0.24 or 1.2 mL/animal, respectively). Dosing was performed by 1 minute slow injection via the cephalic vein, using a catheter.
(§4) Blood collection: Blood samples (approximately 3 mL/sample) were collected from the jugular vein in the following time points:
(§5) Blood samples were placed into tubes containing K2EDTA. The samples were centrifuged under refrigerated (2 to 8° C.) conditions within 30 minutes of sample collection and the resulting plasma was separated and split into two approximately equal aliquots. Each plasma sample was placed into pre-chilled tubes that were placed on dry ice until frozen at −60° to −90° C. Bioanalysis was performed for plasma concentrations of both terlipressin and LVP.
(§6) Bioanalysis of plasma samples was performed using a LC-MS/MS method for quantitation of terlipressin and [Lys8]—Vasopressin in Dog Plasma.

in vivo = details: beagle, dog, iv
Method: as §1, §2, §3, §4, §5, §6

## NCCCC[C@H](NC(=O)[C@@H]1CCCN1C(=O)[C@@H]1CSSC[C@H](NC(=O)CNC(=O)CNC(=O)CN)C(=O)N[C@@H](Cc2ccc(O)cc2)C(=O)N[C@@H](Cc2ccccc2)C(=O)N[C@@H](CCC(N)=O)C(=O)N[C@@H](CC(N)=O)C(=O)N1)C(=O)NCC(N)=O [terlipressin, triglycyl lysine vasopressin] (H-GGGCYFQNCPKG-NH2; disulfide 4-9)
[1]
  increase of both LVP AUCs from 0.04 mg to 0.2 mg: 3.7 fold
In vivo; 0.04 mg
  AUC(0-inf): 1.77 ng·h/mL
  AUC(0-t): 1.82 ng·h/mL
  Cmax: 12.6 ng/mL
  Tmax: 4.98 min
  half-life: 4.44 min
In vivo; 0.2 mg
  AUC(0-inf): 9.14 ng·h/mL
  AUC(0-t): 9.13 ng·h/mL
  Cmax: 59.1 ng/mL
  Tmax: 4.02 min
  half-life: 13.9 min
